Experiments:
[1] = biological target: T1, human 5HT1A-serotonergic receptor (Homo sapiens, UniProt P08908); test: Radioligand binding to recombinant 5-HT1A receptors; details: [3H]8-OH-DPAT 1 nM, membranes of HeLa cells with human 5-HT1A receptor; Ki from IC50 by Cheng & Prusoff; read-out: Binding affinity for 5HT1A receptors, Ki
T1 construct: expressed in transfected cells; host or cells: HeLa (human cell line), stably transfected; cell membranes used
T1 sequence (P08908 1-422): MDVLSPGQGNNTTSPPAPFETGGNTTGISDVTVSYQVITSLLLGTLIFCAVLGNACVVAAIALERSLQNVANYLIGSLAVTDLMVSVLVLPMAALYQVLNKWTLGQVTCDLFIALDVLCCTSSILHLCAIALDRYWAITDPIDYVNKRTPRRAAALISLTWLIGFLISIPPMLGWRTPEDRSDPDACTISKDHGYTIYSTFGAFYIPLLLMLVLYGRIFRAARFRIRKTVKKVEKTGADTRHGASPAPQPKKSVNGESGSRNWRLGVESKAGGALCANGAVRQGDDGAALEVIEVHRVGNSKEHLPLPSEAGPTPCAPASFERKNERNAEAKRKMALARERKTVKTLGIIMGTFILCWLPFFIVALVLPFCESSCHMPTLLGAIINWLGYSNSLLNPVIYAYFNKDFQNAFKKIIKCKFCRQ
Procedure, shortened: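 Displacement of 1 nM [3H]8-OH-DPAT (30 min, 30 °C, Tris-HCl pH 7.4 with MgCl2 and pargyline) from recombinant human 5-HT1A in transfected HeLa membranes, stopped by filtration. Specific binding defined against 10 μM 5-HT; IC50 by nonlinear fitting, then Ki by Cheng–Prusoff.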

anaesthetised rats = test: Effects on rhythmic bladder-voiding contractions induced by bladder filling in anaesthetised rats; format: in vivo, rat; details: intravenous administration, urethane-anaesthetised rats
Protocol: Female Sprague-Dawley rats weighing 225-275 g (Crl: CDo Br, Charles River Italia) were used. The animals were housed with free access to food and water and maintained on a forced 12-hour alternating light-dark cycle at 22-24° C. for at least one week, except during the experiment. The activity on rhythmic bladder voiding contractions was evaluated according to the method of Dray (Dray J., Pharmacol. Methods, 13:157, 1985), with some modifications as in Guarneri (Guarneri, Pharmacol. Res. 27:173, 1993). Briefly, the rats were anaesthetised by subcutaneous injection of 1.25 g/kg (5 ml/kg) urethane, after which the urinary bladder was catheterised via the urethra using PE 50 polyethylene tubing filled with physiological saline. The catheter was tied in place with a ligature around the external urethral orifice and was connected to conventional pressure transducers (Statham P23 ID/P23 XL). […] The bladder was then filled via the recording catheter by incremental volumes of warm (37° C.) saline until reflex bladder-voiding contractions occurred (usually 0.8-1.5 ml). For intravenous injection of bioactive compounds, PE 50 polyethylene tubing filled with physiological saline was inserted into the jugular vein.
From the cystometrogram, the number of contractions recorded 15 minutes before (basal values) and after treatment, as well as the mean amplitude of these contractions (mean height of the peaks in mmHg), was evaluated.
Since most compounds produced an effect that was relatively rapid in onset and led to a complete cessation of bladder contractions, bioactivity was conveniently estimated by measuring the duration of bladder quiescence (i.e. the length of the time during which no contractions occurred). The number of tested animals showing a reduction in the number of contractions higher than 30% of that observed in the basal period was recorded too.
The extrapolated doses which induced a reduction in the number of contractions greater than 30% in 50% of the treated rats (ED50) were evaluated by the method of Bliss (Bliss C. I., Quart J. Pharm. Pharmacol. 11, 192-216, 1938).

Ki [1]: 3.3 nM
Structure (SMILES): O=C(C1CCCCC1)N1c2ccccc2CCC1CN1CCN(c2cccc3[nH]ccc23)CC1 (racemic) [Example 1, (±)1-(1-cyclohexanecarbonyl-1,2,3,4-tetrahydroquinoline-2-ylmethyl)-4-(4-indolyl)piperazine]
ED50 (anaesthetised rats; Rattus norvegicus, read-out: ED50 frequency (extrapolated dose inducing a reduction of the number of contractions >30% in 50% of treated rats)): 0.064 mg/kg
ED10 min (extrapolated dose inducing 10 minutes of disappearance of the contractions) (anaesthetised rats): 0.107 mg/kg

— US20030162777A1, “Novel N-acylated heterocycles” (Recordati S.A., priority 2001, published 2003)
